Where two headings read alike, the source gives them in different places.
Key:
[1] = test system: Secretion of IL10 by TMD8 ABC-DLBCL cells; assay: Human IL10 Mesoscale assay (TMD-8); format: cell-based; settings: read-out: Human IL10 Mesoscale assay (TMD-8)
Protocol: (§1) NFKB signaling regulates the secretion of multiple cytokines, including IL6 and IL10. Secretion of the cytokines IL6 and IL10 by TMD8 or OCI-LY3 ABC-DLBCL cells was measured using a mesoscale assay.
(§2) Cell passage number should not exceed 30. Cells should be kept between 0.5-2.5 million cells per mL during culturing and cells should be supplemented every 2-3 days with fresh 50 µM beta-mercaptoenthanol. No beta-mercaptoethanol was used during the mesoscale assay.
(§3) DMSO control wells were used to determine the maximum signal (High Control (HC)). […] Compounds and cells were incubated for 24 h at 37° C. and 5% CO2 (assay volume is 150 μL). After 24 h of incubation 50 μL of the supernatant was transferred to a MSD plate (V-Plex Proinflammation Panel 1 (human) kit, Mesoscale (MSD)) and incubated for 2 h with vigorous shaking (600 rpm) at room temperature. Following incubation, plates were washed 3× with PBS+0.05% Tween-20 and 25 μL detection antibody solution (IL6 & IL10 antibodies in diluent 3 (MSD)) was added per well followed by 2 h of incubation with vigorous shaking (600 rpm) at room temperature. After 3× washes with PBS+0.05% Tween-20, plates were incubated with 150 μL 2× Read Buffer T and read on SECTOR imager.

[2] = test system: OCI-Ly3 ABC-DLBCL cell line; assay: 4-day proliferation assay OCI-Ly3; format: cell-based; settings: Homo sapiens, read-out: Anti-proliferation: OCI-LY-3 IC50
Protocol: To assess anti-proliferative effects, MALT1 inhibitor test compounds were tested in 4-day proliferation assays using three different DLBCL cell lines.
Cells should be kept between 0.5-2.5 million cells per mL during culturing and cells should be supplemented every 2-3 days with fresh 50 μM beta-mercaptoenthanol. No beta-mercaptoethanol is used during the proliferation assay. OCI-Ly7 cells were propagated in IMDM (ThermoFisher) supplemented with 10% fetal bovine serum (HyClone), 2 mM L-glutamine (Sigma Aldrich) and 50 μg/mL Gentamycin. Cell passage numbers should not exceed 30.
10,000 TMD8, 10,000 OCI-Ly3 or 2,000 OCI-Ly7 cells were seeded in 100 μL media per well and incubated for 4 days at 37° C. and 5% CO2. Cell plating numbers were chosen based on growth curves to ensure linear cell growth. After 4 days of incubation 50 μl CellTiterGLO reagent (Promega) were added to each well and luminescence was measured on the Envision after 10 min of incubation at room temperature.

[3] = target: T1, full-length MALT1 protein (Strep-MALT1(1-824)-His) (Homo sapiens, UniProt Q9UDY8); assay: biochemical;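 also: fluorogenic LRSR-AMC substrate cleavage by MALT1, 50 min compound preincubation then 4 h reaction at RT, 11-point dilution from 30 µM, scaled between enzyme-free and untreated enzyme controls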
T1 sequence (Q9UDY8 1-824): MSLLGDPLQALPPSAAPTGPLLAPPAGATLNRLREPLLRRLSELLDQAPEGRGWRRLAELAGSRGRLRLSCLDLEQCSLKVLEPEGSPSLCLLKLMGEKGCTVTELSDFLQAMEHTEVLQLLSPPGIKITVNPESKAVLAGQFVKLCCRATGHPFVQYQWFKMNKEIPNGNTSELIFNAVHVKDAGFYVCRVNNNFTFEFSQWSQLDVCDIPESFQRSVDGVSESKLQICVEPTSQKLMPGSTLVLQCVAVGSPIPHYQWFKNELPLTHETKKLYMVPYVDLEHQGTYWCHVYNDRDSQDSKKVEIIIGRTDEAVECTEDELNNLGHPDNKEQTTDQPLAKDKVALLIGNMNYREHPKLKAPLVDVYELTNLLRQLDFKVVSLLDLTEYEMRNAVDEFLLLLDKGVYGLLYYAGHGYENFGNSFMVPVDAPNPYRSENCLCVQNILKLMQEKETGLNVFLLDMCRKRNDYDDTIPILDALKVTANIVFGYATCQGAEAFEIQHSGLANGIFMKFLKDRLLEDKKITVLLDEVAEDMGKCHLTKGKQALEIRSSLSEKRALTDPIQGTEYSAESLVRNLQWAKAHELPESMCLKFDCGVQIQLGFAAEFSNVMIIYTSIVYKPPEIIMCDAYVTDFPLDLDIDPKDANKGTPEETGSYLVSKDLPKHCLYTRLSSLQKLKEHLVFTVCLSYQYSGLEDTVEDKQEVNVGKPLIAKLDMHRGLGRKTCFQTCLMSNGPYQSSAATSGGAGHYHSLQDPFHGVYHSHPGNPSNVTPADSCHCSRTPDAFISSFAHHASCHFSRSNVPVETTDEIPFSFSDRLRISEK

[4] = test system: Secretion of IL6 by TMD8 ABC-DLBCL cells; assay: Human IL6 Mesoscale assay (TMD-8); format: cell-based; settings: read-out: Human IL6 Mesoscale assay (TMD-8)
Protocol: as §1, §2, §3

[5] = test system: Secretion of IL10 by OCI-LY3 ABC-DLBCL cells; assay: Human IL10 Mesoscale assay (OCI-LY3); format: cell-based; settings: OCI-LY3 cells, 24 h incubation, supernatant, MSD V-Plex, read-out: Human IL10 Mesoscale assay (OCI-LY3)
Procedure, shortened: (§4)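 TMD8 or OCI-LY3 ABC-DLBCL cells incubated with compound 24 h at 37° C without beta-mercaptoethanol. Secreted IL6 and IL10 in supernatant quantified by MSD electrochemiluminescence immunoassay; DMSO wells define maximum signal.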

[6] = test system: Secretion of IL6 by OCI-LY3 ABC-DLBCL cells; assay: Human IL6 Mesoscale assay (OCI-LY3); format: cell-based; settings: OCI-LY3 cells, 24 h incubation, supernatant, MSD V-Plex, read-out: Human IL6 Mesoscale assay (OCI-LY3)
Procedure, shortened: as §4

[7] = TMD8 cells, 24 h incubation, supernatant, MSD V-Plex
[8] = 96 h, 10,000 OCI-Ly3 cells per well, 4 days, CellTiterGLO

SMILES	IC50 ([1]; TMD8, 24 h)	IC50 ([2]; OCI-Ly3, 96 h)	IC50 [3]	IC50 [4, 7]	IC50 [1, 7]	IC50 [2, 8]	IC50 ([4]; TMD8, 24 h)	IC50 [5]	IC50 [6]
O=C(Nc1cnc(-n2nccn2)c(Cl)c1)c1cnn(-c2cccc(F)c2)c1C(F)(F)F [Cpd 20, N-(5-chloro-6-(2H-1,2,3-triazol-2-yl)pyridin-3-yl)-1-(3-fluorophenyl)-5-(trifluoromethyl)-1H-pyrazole-4-carboxamide]	1000 nM	12600 nM	562 nM						
Cc1ccnc(-n2ncc(C(=O)Nc3cnc(-n4nccn4)c(Cl)c3)c2C(F)(F)F)c1 [Cpd 22, N-(5-chloro-6-(2H-1,2,3-triazol-2-yl)pyridin-3-yl)-1-(4-methylpyridin-2-yl)-5-(trifluoromethyl)-1H-pyrazole-4-carboxamide]	724 nM	490 nM	724 nM				437 nM		
N#Cc1cc(NC(=O)c2cnn(-c3cccc4c3OCO4)c2C(F)(F)F)cnc1-n1nccn1 [Cpd 59, 1-(benzo[d][1,3]dioxol-4-yl)-N-(5-cyano-6-(2H-1,2,3-triazol-2-yl)pyridin-3-yl)-5-(trifluoromethyl)-1H-pyrazole-4-carboxamide]	48 nM	468 nM	41 nM				35 nM		
N#Cc1ccc(-n2ncc(C(=O)Nc3cnc(-n4nccn4)c(Cl)c3)c2C(F)(F)F)cc1 [Cpd 19, N-(5-chloro-6-(2H-1,2,3-triazol-2-yl)pyridin-3-yl)-1-(4-cyanophenyl)-5-(trifluoromethyl)-1H-pyrazole-4-carboxamide]			132 nM		117 nM	7940 nM			
N#Cc1cc(NC(=O)c2cnn(-c3cccc4c3CCN4)c2C(F)(F)F)cnc1-n1nccn1 [Cpd 130, N-(5-cyano-6-(2H-1,2,3-triazol-2-yl)pyridin-3-yl)-1-(indolin-4-yl)-5-(trifluoromethyl)-1H-pyrazole-4-carboxamide]			234 nM	437 nM	245 nM				
N#Cc1cc(NC(=O)c2cnn(-c3nccc(N)c3Cl)c2C(F)(F)F)cnc1-n1nccn1 [Cpd 120, 1-(4-amino-3-chloropyridin-2-yl)-N-(5-cyano-6-(2H-1,2,3-triazol-2-yl)pyridin-3-yl)-5-(trifluoromethyl)-1H-pyrazole-4-carboxamide]			126 nM	1100 nM	1350 nM			794 nM	741 nM
Cc1cccnc1-n1ncc(C(=O)Nc2cnc(-n3nccn3)c(Cl)c2)c1C(F)(F)F [Cpd 3, N-(5-Chloro-6-(2H-1,2,3-triazol-2-yl)pyridin-3-yl)-1-(3-methylpyridin-2-yl)-5-(trifluoromethyl)-1H-pyrazole-4-carboxamide]			282 nM		832 nM	2460 nM			
O=C(Nc1cnc(-n2nccn2)c(Cl)c1)c1cnn(-c2ccncc2)c1C(F)(F)F [Cpd 4, N-(5-Chloro-6-(2H-1,2,3-triazol-2-yl)pyridin-3-yl)-1-(pyridin-4-yl)-5-(trifluoromethyl)-1H-pyrazole-4-carboxamide]			282 nM		933 nM	1050 nM			

The remaining compounds from weak to strong by IC50 [3], led by results:

IC50 ([1]; TMD8, 24 h)	IC50 ([2]; OCI-Ly3, 96 h)	IC50 [3]	IC50 [4, 7]	IC50 [1, 7]	IC50 [2, 8]	IC50 ([4]; TMD8, 24 h)	IC50 [5]	IC50 [6]	SMILES
417 nM	1550 nM	912 nM				407 nM			O=C(Nc1cnc(-n2nccn2)c(Cl)c1)c1cnn(-c2ccc(F)cn2)c1C(F)(F)F [Cpd 7, N-(5-Chloro-6-(2H-1,2,3-triazol-2-yl)pyridin-3-yl)-1-(5-fluoropyridin-2-yl)-5-(trifluoromethyl)-1H-pyrazole-4-carboxamide]
		389 nM	490 nM	1230 nM	11000 nM				N#Cc1cc(NC(=O)c2cnn(-c3ncccc3Cl)c2C(F)(F)F)cnc1-n1nccn1 [Cpd 44, 1-(3-Chloropyridin-2-yl)-N-(5-cyano-6-(2H-1,2,3-triazol-2-yl)pyridin-3-yl)-5-(trifluoromethyl)-1H-pyrazole-4-carboxamide]
		229 nM	1020 nM	2240 nM					CN1CCc2c1cccc2-n1ncc(C(=O)Nc2cnc(-n3nccn3)c(C#N)c2)c1C(F)(F)F [Cpd 128, N-(5-cyano-6-(2H-1,2,3-triazol-2-yl)pyridin-3-yl)-1-(1-methylindolin-4-yl)-5-(trifluoromethyl)-1H-pyrazole-4-carboxamide]
1150 nM	4270 nM	214 nM				1550 nM			N#Cc1cc(NC(=O)c2cnn(-c3nccc(Cl)c3Cl)c2C(F)(F)F)cnc1-n1nccn1 [Cpd 36, N-(5-Cyano-6-(2H-1,2,3-triazol-2-yl)pyridin-3-yl)-1-(3,4-dichloropyridin-2-yl)-5-(trifluoromethyl)-1H-pyrazole-4-carboxamide]
		191 nM	550 nM	1350 nM	1100 nM				CN1CCOc2c1cccc2-n1ncc(C(=O)Nc2cnc(-n3nccn3)c(C#N)c2)c1C(F)(F)F [Cpd 132, N-(5-cyano-6-(2H-1,2,3-triazol-2-yl)pyridin-3-yl)-1-(4-methyl-3,4-dihydro-2H-benzo[b][1,4]oxazin-8-yl)-5-(trifluoromethyl)-1H-pyrazole-4-carboxamide]
		170 nM	4790 nM	2240 nM	6310 nM				Cc1nccc(-n2ncc(C(=O)Nc3cnc(-n4nccn4)c(C#N)c3)c2C(F)(F)F)c1Cl [Cpd 43, 1-(3-chloro-2-methylpyridin-4-yl)-N-(5-cyano-6-(2H-1,2,3-triazol-2-yl)pyridin-3-yl)-5-(trifluoromethyl)-1H-pyrazole-4-carboxamide]
115 nM	6460 nM	151 nM							O=C(Nc1cnc(-n2nccn2)c(Cl)c1)c1cnn(-c2ccc(F)cc2)c1C(F)(F)F [Cpd 18, N-(5-chloro-6-(2H-1,2,3-triazol-2-yl)pyridin-3-yl)-1-(4-fluorophenyl)-5-(trifluoromethyl)-1H-pyrazole-4-carboxamide]
		148 nM	145 nM	151 nM	437 nM				N#Cc1cc(NC(=O)c2cnn(-c3cccc4c3OCCO4)c2C(F)(F)F)cnc1-n1nccn1 [Cpd 49, N-(5-cyano-6-(2H-1,2,3-triazol-2-yl)pyridin-3-yl)-1-(2,3-dihydrobenzo[b][1,4]dioxin-5-yl)-5-(trifluoromethyl)-1H-pyrazole-4-carboxamide]
